From publication PMC7176436, “Post-translational regulation of retinal IMPDH1 in vivo to adjust GTP synthesis to illumination conditions” (eLife, 2020)

Biological target: T1, IMPDH1 (murine retinal) (Mus musculus, UniProt P50096)
T1 construct: native, murine retina
Assay: IMPDH1 spicule formation in retinas treated with […] MPA; SDS-PAGE mobility shift after injection of its prodrug MMF
Format: cell-based

T1 sequence (P50096 whole entry): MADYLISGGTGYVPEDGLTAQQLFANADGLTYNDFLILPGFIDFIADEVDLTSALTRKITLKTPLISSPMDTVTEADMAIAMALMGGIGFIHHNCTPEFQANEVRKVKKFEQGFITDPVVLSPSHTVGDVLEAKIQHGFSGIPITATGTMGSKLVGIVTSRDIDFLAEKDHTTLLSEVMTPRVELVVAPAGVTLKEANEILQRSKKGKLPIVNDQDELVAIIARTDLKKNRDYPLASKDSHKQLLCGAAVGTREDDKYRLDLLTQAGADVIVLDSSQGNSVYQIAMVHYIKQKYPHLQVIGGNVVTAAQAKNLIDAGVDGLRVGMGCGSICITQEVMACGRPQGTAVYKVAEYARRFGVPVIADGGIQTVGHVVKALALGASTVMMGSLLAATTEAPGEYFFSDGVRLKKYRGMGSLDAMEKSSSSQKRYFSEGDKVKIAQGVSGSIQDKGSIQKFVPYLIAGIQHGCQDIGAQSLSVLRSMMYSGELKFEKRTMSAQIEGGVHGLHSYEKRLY

COc1c(C)c2c(c(O)c1C/C=C(\C)CCC(=O)O)C(=O)OC2 [mycophenolic acid]
IMPDH1 spicule formation in retinas treated with 10 μM MPA; SDS-PAGE mobility sh: MPA inhibition of IMPDH1 resulted in the formation and accumulation of IMPDH1 spicules with time
